The values that follow come from patent US20140023611A1 (priority 2010, published 2014).

SMILES strings stand for the structures.

The target of the assay is T1, rat NaP2b (SLC34A2) (Rattus norvegicus, UniProt Q9JJ09).
T1 construct: host or cells: HEK293
T1 sequence (Q9JJ09 1-695): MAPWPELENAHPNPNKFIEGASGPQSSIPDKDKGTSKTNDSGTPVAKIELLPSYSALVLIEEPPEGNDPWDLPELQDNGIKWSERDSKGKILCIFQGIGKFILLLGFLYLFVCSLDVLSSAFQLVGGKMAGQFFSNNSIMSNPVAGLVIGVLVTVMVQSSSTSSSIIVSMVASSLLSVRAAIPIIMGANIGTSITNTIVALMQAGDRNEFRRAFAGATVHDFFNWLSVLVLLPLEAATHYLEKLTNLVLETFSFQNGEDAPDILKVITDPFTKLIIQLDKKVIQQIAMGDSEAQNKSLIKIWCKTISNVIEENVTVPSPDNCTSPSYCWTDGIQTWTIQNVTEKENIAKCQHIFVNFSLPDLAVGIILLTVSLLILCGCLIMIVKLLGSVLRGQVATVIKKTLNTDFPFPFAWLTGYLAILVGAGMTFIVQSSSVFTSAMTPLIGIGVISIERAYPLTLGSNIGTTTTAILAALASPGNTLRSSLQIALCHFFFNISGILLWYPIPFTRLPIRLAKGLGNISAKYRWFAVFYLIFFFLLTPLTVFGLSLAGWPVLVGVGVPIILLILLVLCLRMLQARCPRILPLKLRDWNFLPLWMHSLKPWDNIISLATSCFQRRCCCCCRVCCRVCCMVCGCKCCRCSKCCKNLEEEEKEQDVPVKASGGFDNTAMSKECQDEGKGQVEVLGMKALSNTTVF
Nature of the assay: Inhibition of NaP2b-mediated Pi (33P) uptake in transfected HEK293 cells, rat NaP2b. The conditions noted are these: 33P Pi uptake, 0.1 mM phosphate, value given as pIC50 range. It is filed as cell-based. In a few lines:
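HEK293 cells were transiently transfected with NaP2b cDNA using Lipofectamine and grown near confluence. Compounds were tested at twelve concentrations from 0.1 nM to 30 uM in duplicate, and 33P-phosphate uptake was counted by scintillation after lysis. Results are expressed as pIC50.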

On to `CN(CCOCCOCCOCCC(=O)O)Cc1cccc(C(=O)Nc2ccc(N3CCCCC3)cc2-c2cc(C(=O)NCc3cccc(C(F)(F)F)c3)ccn2)n1` [Example 54, 2-Methyl-1-(6-((4-(piperidin-1-yl)-2-(4-((3-(trifluoromethyl)benzyl)carbamoyl)pyridin-2-yl)phenyl)carbamoyl)pyridin-2-yl)-5,8,11-trioxa-2-azatetradecan-14-oic acid], for which the IC50 (as a rule, the concentration at which inhibition is half-maximal) is 10 to 31.6 µM.
The same measure for `CC(=O)N[C@@H]1CCN(Cc2cccc(C(=O)Nc3ccc(N4CCCCC4)cc3-c3cc(C(=O)NCc4cccc(C(F)(F)F)c4)ccn3)n2)C1` [Example 55, (R)-6-((3-Acetamidopyrrolidin-1-yl)methyl)-N-(4-(piperidin-1-yl)-2-(4-((3-(trifluoromethyl)benzyl)carbamoyl)pyridin-2-yl)phenyl)picolinamide 2,2,2-trifluoroacetate]: 1 to 7.94 µM; for `CC(=O)N[C@H]1CCN(Cc2cccc(C(=O)Nc3ccc(N4CCCCC4)cc3-c3cc(C(=O)NCc4cccc(C(F)(F)F)c4)ccn3)n2)C1` [Example 56, (S)-6-((3-Acetamidopyrrolidin-1-yl)methyl)-N-(4-(piperidin-1-yl)-2-(4-((3-(trifluoromethyl)benzyl)carbamoyl)pyridin-2-yl)phenyl)picolinamide]: 10 to 31.6 µM; for `CC(=O)NC1CCN(Cc2cccc(C(=O)Nc3ccc(N4CCCCC4)cc3-c3cc(C(=O)NCc4cccc(C(F)(F)F)c4)ccn3)n2)CC1` [Example 57, 6-((4-Acetamidopiperidin-1-yl)methyl)-N-(4-(piperidin-1-yl)-2-(4-((3-(trifluoromethyl)benzyl)carbamoyl)pyridin-2-yl)phenyl)picolinamide]: 10 to 31.6 µM.
Compound `CC(=O)N1CCN(Cc2cccc(C(=O)Nc3ccc(N4CCCCC4)cc3-c3cc(C(=O)NCc4cccc(C(F)(F)F)c4)ccn3)n2)CC1` [Example 58, 6-((4-Acetylpiperazin-1-yl)methyl)-N-(4-(piperidin-1-yl)-2-(4-((3-(trifluoromethyl)benzyl)carbamoyl)pyridin-2-yl)phenyl)picolinamide] had an IC50 of 1 to 7.94 µM.
Compound `CC(=O)N1CCCN(Cc2cccc(C(=O)Nc3ccc(N4CCCCC4)cc3-c3cc(C(=O)NCc4cccc(C(F)(F)F)c4)ccn3)n2)CC1` [Example 59, 6-((4-Acetyl-1,4-diazepan-1-yl)methyl)-N-(4-(piperidin-1-yl)-2-(4-((3-(trifluoromethyl)benzyl)carbamoyl)pyridin-2-yl)phenyl)picolinamide] gave an IC50 of 1 to 7.94 µM.
The result for `CC(=O)N1CCN(CCN(C)Cc2cccc(C(=O)Nc3ccc(N4CCCCC4)cc3-c3cc(C(=O)NCc4cccc(C(F)(F)F)c4)ccn3)n2)CC1` [Example 60, 6-(((2-(4-Acetylpiperazin-1-yl)ethyl)(methyl)amino)methyl)-N-(4-(piperidin-1-yl)-2-(4-((3-(trifluoromethyl)benzyl)carbamoyl)pyridin-2-yl)phenyl)picolinamide] reads 10 to 31.6 µM; that for `CN1CCN(CCN(C)Cc2cccc(C(=O)Nc3ccc(N4CCCCC4)cc3-c3cc(C(=O)NCc4cccc(C(F)(F)F)c4)ccn3)n2)CC1` [Example 61, 6-((Methyl(2-(4-methylpiperazin-1-yl)ethyl)amino)methyl)-N-(4-(piperidin-1-yl)-2-(4-((3-(trifluoromethyl)benzyl)carbamoyl)pyridin-2-yl)phenyl)picolinamide], 10 to 31.6 µM; that for `CN(CCN1CCN(S(C)(=O)=O)CC1)Cc1cccc(C(=O)Nc2ccc(N3CCCCC3)cc2-c2cc(C(=O)NCc3cccc(C(F)(F)F)c3)ccn2)n1` [Example 62, 6-((Methyl(2-(4-(methylsulfonyl)piperazin-1-yl)ethyl)amino)methyl)-N-(4-(piperidin-1-yl)-2-(4-((3-(trifluoromethyl)benzyl)carbamoyl)pyridin-2-yl)phenyl)picolinamide], 10 to 31.6 µM.
The same measure for `COCCNC(=O)N1CCN(CCN(C)Cc2cccc(C(=O)Nc3ccc(N4CCCCC4)cc3-c3cc(C(=O)NCc4cccc(C(F)(F)F)c4)ccn3)n2)CC1` [Example 63, N-(2-Methoxyethyl)-4-(2-(methyl((6-((4-(piperidin-1-yl)-2-(4-((3-(trifluoromethyl)benzyl)carbamoyl)pyridin-2-yl)phenyl)carbamoyl)pyridin-2-yl)methyl)amino)ethyl)piperazine-1-carboxamide]: 1 to 7.94 µM.
The same measure for `O=C(NCCOCCO)c1cccc(C(=O)Nc2ccc(N3CCCCC3)cc2-c2cc(NCc3cccc(C(F)(F)F)c3)ncn2)c1` [Example 64, N1-(2-(2-Hydroxyethoxy)ethyl)-N3-(4-(piperidin-1-yl)-2-(6-((3-(trifluoromethyl)benzyl)amino)pyrimidin-4-yl)phenyl)isophthalamide]: 10 to 31.6 µM; for `O=C(NCCOCCO)c1cccc(C(=O)Nc2ccc(Cl)cc2-c2cc(NCc3cccc(C(F)(F)F)c3)ncn2)c1` [Example 65, N1-(4-Chloro-2-(6-((3-(trifluoromethyl)benzyl)amino)pyrimidin-4-yl)phenyl)-N3-(2-(2-hydroxyethoxy)ethyl)isophthalamide]: 10 to 31.6 µM.
`O=C(O)CCSCc1cccc(C(=O)Nc2ccc(Cl)cc2-c2cc(NCc3cccc(C(F)(F)F)c3)ncn2)c1` [Example 66, 3-((3-((4-Chloro-2-(6-((3-(trifluoromethyl)benzyl)amino)pyrimidin-4-yl)phenyl)carbamoyl)benzyl)thio)propanoic acid] had an IC50 of 10 to 31.6 µM.
The result for `CN(C)CCC#Cc1cccc(C(=O)Nc2ccc(Cl)cc2-c2cc(NCc3cccc(C(F)(F)F)c3)ncn2)c1` [Example 67, N-(4-Chloro-2-(6-(3-(trifluoromethyl)benzylamino)pyrimidin-4-yl)phenyl)-3-(4-(dimethylamino)but-1-ynyl)benzamide 2,2,2-trifluoroacetate] reads 10 to 31.6 µM.
The same measure for `CCN(CC)CCN(C)Cc1cccc(C(=O)Nc2ccc(Cl)cc2-c2cc(NCc3cccc(C(F)(F)F)c3)ncn2)c1` [Example 68, N-(4-Chloro-2-(6-((3-(trifluoromethyl)benzyl)amino)pyrimidin-4-yl)phenyl)-3-(((2-(diethylamino)ethyl)(methyl)amino)methyl)benzamide]: 10 to 31.6 µM.
In turn, `O=C(O)CCSCc1cccc(C(=O)Nc2ccc(N3CCCCC3)cc2-c2cc(NCc3cccc(C(F)(F)F)c3)ccn2)c1` [Example 69, 3-((3-((4-(Piperidin-1-yl)-2-(4-((3-(trifluoromethyl)benzyl)amino)pyridin-2-yl)phenyl)carbamoyl)benzyl)thio)propanoic acid] gave a 50% inhibitory concentration (IC50) of 10 to 31.6 µM.
In turn, `O=C(O)CCSCc1cccc(C(=O)Nc2ccc(N3CCCCC3)cc2-c2cc(NCCc3cccc(C(F)(F)F)c3)ccn2)c1` [Example 70, 3-((3-((4-(Piperidin-1-yl)-2-(4-((3-(trifluoromethyl)phenethyl)amino)pyridin-2-yl)phenyl)carbamoyl)benzyl)thio)propanoic acid] gave a 50% inhibitory concentration (IC50) of 10 to 31.6 µM.
As for `Cc1ccc(Nc2ccnc(-c3cc(N4CCCCC4)ccc3NC(=O)c3cccc(CSCCC(=O)O)c3)c2)cc1C` [Example 71, 3-((3-((2-(4-((3,4-Dimethylphenyl)amino)pyridin-2-yl)-4-(piperidin-1-yl)phenyl)carbamoyl)benzyl)thio)propanoic acid], the half-inhibitory concentration (IC50) is 10 to 31.6 µM.
The same measure for `O=C(O)CCSCc1cccc(C(=O)Nc2ccc(N3CCCCC3)cc2-c2cc(Nc3cccc(C(F)(F)F)c3)ccn2)c1` [Example 72, 3-((3-((4-(Piperidin-1-yl)-2-(4-((3-(trifluoromethyl)phenyl)amino)pyridin-2-yl)phenyl)carbamoyl)benzyl)thio)propanoic acid]: 10 to 31.6 µM; for `O=C(O)CCSCc1cccc(C(=O)Nc2ccc(N3CCCCC3)cc2-c2cc(NC(=O)c3cccc(C(F)(F)F)c3)ccn2)c1` [Example 73, 3-((3-((4-(Piperidin-1-yl)-2-(4-(3-(trifluoromethyl)benzamido)pyridin-2-yl)phenyl)carbamoyl)benzyl)thio)propanoic acid]: 10 to 31.6 µM; for `Cc1ccc(C(=O)Nc2ccnc(-c3cc(N4CCCCC4)ccc3NC(=O)c3cccc(CSCCC(=O)O)c3)c2)cc1C` [Example 74, 3-((3-((2-(4-(3,4-Dimethylbenzamido)pyridin-2-yl)-4-(piperidin-1-yl)phenyl)carbamoyl)benzyl)thio)propanoic acid]: 10 to 31.6 µM.
In the case of `O=C(NCc1cccc(C(F)(F)F)c1)c1ccnc(-c2cc(N3CCCCC3)ccc2NC(=O)c2cccc(Cn3cc(CCO)nn3)c2)c1` [Example 75, 2-(2-(3-((4-(2-Hydroxyethyl)-1H-1,2,3-triazol-1-yl)methyl)benzamido)-5-(piperidin-1-yl)phenyl)-N-(3-(trifluoromethyl)benzyl)isonicotinamide], the 50% inhibitory concentration (IC50) is 10 to 31.6 µM.
As for `CC(Nc1cc(-c2cc(N3CCCCC3)ccc2NC(=O)c2cccc(CSCCC(=O)O)c2)ncn1)c1cccc(C(F)(F)F)c1` (centres unmarked) [Example 76, 3-((3-((4-(Piperidin-1-yl)-2-(6-((1-(3-(trifluoromethyl)phenyl)ethyl)amino)pyrimidin-4-yl)phenyl)carbamoyl)benzyl)thio)propanoic acid], the IC50 is 10 to 31.6 µM.
